The test system of one test is miR-122. In words: AntagomiR treatment of mice: liver miR-122 by Northern blotting and quantitative PCR. In kind it is in vivo. The following applies: mouse liver. The procedure: (§1) Liver and serum samples were harvested for analysis.
MiRNA expression was assessed by Northern blot analysis as previously described (Suárez, Circ Res 2007, 100: 1164-73). Briefly, total RNA (5 μg) was separated on a 15% acrylamide TBE 8M urea gel and blotted onto a Hybond N+ nylon filter (Amersham Biosciences). […] ATP and […] polynucleotide kinase (New England Biolabs) to generate high-specific activity probes. Hybridization was carried out according to the ExpressHyb (Clontech) protocol. Following overnight membrane hybridization with specific radiolabeled probes, membranes were washed once for 30 min at 42° C. in 4×SSC/0:5% SDS and subjected to autoradiography. Blots were re-probed for 5S rRNA to control for equal loading: 5′-[…]-3′
Total RNA was isolated from liver and hepatocyte samples using TRIzol reagent (Invitrogen) according to the manufacturer's protocol. For mRNA quantification, cDNA was synthesized using iScript RT Supermix (Bio-Rad), following the manufacturer's protocol. qRT-PCR analysis was performed in triplicate using iQ SYBR green Supermix (BioRad) on an iCycler Real-Time Detection System (Eppendorf). […] For miRNA quantification, total RNA was reverse transcribed using the miScript II RT Kit (Qiagen). […] 1 μg of total RNA was reverse transcribed and gene/miRNA expression assessed as above.

The next test has as its system miR-33. In words: AntagomiR treatment of mice: hepatic miR-33 expression. In kind it is in vivo. The following applies: mouse liver, antagomiR-122 vs control antagomiRs, 65 mg/kg i.p. x3 days, day 7. The procedure: as §1
(§2) Total RNA was isolated from liver and hepatocyte samples using TRIzol reagent (Invitrogen) according to the manufacturer's protocol. For mRNA quantification, cDNA was synthesized using iScript RT Supermix (Bio-Rad), following the manufacturer's protocol. qRT-PCR analysis was performed in triplicate using iQ SYBR green Supermix (BioRad) on an iCycler Real-Time Detection System (Eppendorf). The mRNA level was normalized to GAPDH or 18S as a house keeping gene (see primer sequence in Table 2). For miRNA quantification, total RNA was reverse transcribed using the miScript II RT Kit (Qiagen). […] For mouse tissues, total liver RNA from WT mice fed a HFD were isolated using the Bullet Blender Homogenizer (Next Advance) in TRIzol. 1 μg of total RNA was reverse transcribed and gene/miRNA expression assessed as above.

A short description of test [1]: AntagomiR treatment of mice: serum cholesterol. The test is classed as in vivo. As to conditions: antagomiR-122 vs control antagomiRs, 65 mg/kg i.p. x3 days, day 7. The procedure:
as §1
Blood samples were collected by retro-orbital venous plexus puncture after a 12 h overnight fast for lipid analysis. Plasma was separated by centrifugation and stored at 4° C. Total and HDL cholesterol in each sample was enzymatically measured using the T-Cholesterol and HDL-C Assay Kits (Wako Diagnostics).

The subject of test [2] is genes implicated in cholesterol and lipid metabolism (ACC1, CTP1, FAS, SCD1, MTTP, SREBP1). In words: AntagomiR treatment of mice: liver expression of genes implicated in cholesterol and lipid metabolism (qRT-PCR). The test is classed as in vivo. The following applies: mouse liver mRNA, antagomiR-122 65 mg/kg i.p. x3 days, day 7. The method, then:
as §1, §2

For test [3] the following is noted: ASCOT participants, atorvastatin 10 mg/day vs placebo, baseline vs 1 year.
Test [4] has as its system serum miR-122. As to conditions: ASCOT participants (n=155), atorvastatin 10 mg/day vs placebo, baseline vs 1 year.
Test [5] concerns serum miR-122. In words: Statin treatment of mice: serum miR-122. The following applies: C57BI/6 mice, 20 mg/kg atorvastatin intraperitoneally once a day for five days.
Another test has as its system hepatitis C virus. As to conditions: 36 patients with chronic hepatitis C genotype 1 infection, Phase 2a (Janssen, N Engl J Med 2013); cited from earlier work.

Entries after “also recorded” stand apart in the source; their conditions may differ.

For “C*A*AACACCAUUGUCACACU*C*C*A*Chol*-T [antagomiR-122]”, the “liver miR-122 expression” value with miR-122 (Northern blotting / qPCR, 65 mg/kg i.p. on three consecutive days, day 7, n=5 per group, 65 mg/kg) is reported as “almost complete inhibition of miR-122 expression; also recorded: reduction of liver miR-122”. In addition, the “relative amount of miR-122 in antagomiR-122 group” value with miR-122 (quantitative PCR, 65 mg/kg intraperitoneally on three consecutive days, sacrificed at day 7, vs control antagomiRs, mean (standard deviation)) is 0.13%+/−0.06%. Also, in the test with miR-33, the “hepatic expression of miR-33” value is reported as “attenuated; also recorded: reduction of miR-33”. For the same compound, the serum cholesterol concentration result in test [1] is “lower cholesterol levels; also recorded: reduction in serum cholesterol concentration”. The “expression of genes implicated in lipid metabolism (de novo lipogenesis and lipoprotein assembly)” value in test [2] was “down-regulation of enzymes implicated in lipid metabolism”.

For `CC(C)c1c(C(=O)Nc2ccccc2)c(-c2ccccc2)c(-c2ccc(F)cc2)n1CC[C@@H](O)C[C@@H](O)CC(=O)O` [atorvastatin], the total cholesterol entry in test [3] was “concordant reduction”. For the same compound, in the test on serum miR-122 [4], the “serum miR-122 levels” value is recorded as “reduced circulating miR-122 levels; also recorded: concordant reduction”. In addition, the “serum miR-122” value in the test on serum miR-122 [5] is “reduction of miR-122; also recorded: reduced serum miR-122”.

In the case of miravirsen, the “hepatitis C virus RNA levels” value in the test with hepatitis C virus is “reduced hepatitis C virus RNA levels in a dose-dependent manner”.

Values taken from patent US20190010547A1 (Medizinische Universität Innsbruck, priority 2015, published 2019).
